Data on four molecules can be found in US20100291034A1, “COMBINATIONS OF HCV PROTEASE INHIBITOR(S) AND CYP3A4 INHIBITOR(S), AND METHODS OF TREATMENT RELATED THERETO” (Schering Corporation, priority 2006, published 2010).

Like-named read-outs stand apart in the source and are kept apart here. Some results are limits rather than exact numbers.

A short description of data set [1]: Clinical study: pharmacokinetics of Formula Ia administered in combination with ritonavir. Format: in vivo, human. As to the method:
This study was an open-label, randomized, 2-period fixed-sequence, multiple-dose study (FIG. 4). The safety of coadministration of Formula Ia and ritonavir, as well as the quantitation of the ability of ritonavir to enhance Formula Ia PK parameters (specifically trough concentration values) in healthy human subjects was explored. A dose of 400 mg TID of Formula Ia coadministered with ritonavir was selected, as we have substantial safety and PK data available with Formula Ia administered alone at 400 mg TID and 800 TID for comparison. The dose selected of ritonavir was at a level to inhibit CYP3A4 and below the therapeutic dose for HIV. […] In this study, the effect of ritonavir on Formula Ia was examined as a low dose (100 mg) at two different dosing frequencies (i.e., once in the morning (QAM) and twice a day (BID)), which are commonly administered in HIV therapy. Based upon the findings of these regimens, subsequent regimens may be explored, with modification of the Formula Ia and/or ritonavir component(s). Human subjects received Formula Ia alone for 5 days in order to achieve steady-state. Human subjects were then randomized to receive one of two treatment regimens in which ritonavir was coadministered with Formula Ia (Formula Ia for 10 days, ritonavir administered for 12 days). Steady-state PK samples for Formula Ia were collected on Day 5 (Formula Ia alone), and on Day 15 (Formula Ia+ritonavir) and the PK parameters (primarily trough concentrations values) compared. […] In Period 1, all 16 human subjects received Treatment A and in Period 2 human subjects were randomized to either Treatment B or Treatment C (8 human subjects/treatment). […] Treatment A: Formula Ia 400 mg TID, every 8 hours) (Q8° following a meal or snack. Period 2 (Days 6 to 17): Treatment B: Formula Ia 400 mg TID (Q8°, Days 6 to 15), ritonavir 100 mg QAM (Days 6 to 17), following a meal or snack; Treatment C: Formula Ia 400 mg BID, every 12 hours ([…]°), (Days 6 to 15), ritonavir 100 mg BID, […]° (Days 6 to 17), following a meal or snack. Formula Ia (2×200 mg 3% SLS containing capsules), PO, TID, following a meal or snack. Formula Ia (2×200 mg 3% SLS containing capsules), PO, BID, following a meal or snack. Ritonavir (1×100 mg capsules), PO, QAM, following a meal or snack. Ritonavir (1×100 mg capsules), PO, BID, following a meal or snack. The trough levels after multiple-dosing of Formula Ia alone (Day 5) and after multiple-dosing of Formula Ia in combination with ritonavir (Day 15) were compared. […] AUC, Cmax, Cmin, and Tmax. […] The primary pharmacokinetic parameter is Cmin. The secondary parameters are Cmax and AUC. The log transformed pharmacokinetic parameters including Cmin, AUC, and Cmax were statistically analyzed using ANOVA model extracting effects due to treatment and human subject. […] The corresponding 90% confidence intervals were also provided. There is no intention to compare Treatments B and C to each other. • Treatment A: Formula Ia 400 mg TID (Q8°) following a meal or snack. Period 2 (Days 6 to 17). • Treatment B: Formula Ia 400 mg TID (Q8°, Days 6 to 15), ritonavir 100 mg QAM (Days 6 to 17) following a meal or snack. • Treatment C: Formula Ia 400 mg BID ([…]° Days 6 to 15), ritonavir 100 mg BID ([…]°, Days 6 to 17) following a meal or snack.

A short description of data set [2]: Exposure to Formula Ia when coadministered with food. The format is in vivo.
In another data set the test system is human liver cytosol. Put plainly: Incubation of compound Formula Ia or Formula XXVII in human liver cytosol with AKR inhibitor or CYP3A4 inhibitor (formation of M+2 metabolite, LC-MS). Format: in vitro ADME. As to the method:
Prior to the addition of drug, the incubation mixture was preincubated for 2 min at 37° C. […] Human liver microsomes and cytosol without NADPH served as negative controls. Parallel incubations with the compound of Formula Ia were used as positive controls. […] All incubations were performed as described previously for human liver cytosols. […] Parallel incubations with the compound of Formula Ia were used as positive controls.

Data set [3] in a line: Exposure multiple of Formula Ia, most sensitive animal species versus humans. The conditions noted are these: most sensitive animal species compared with mean exposure in humans receiving 400 mg TID. Format: in vivo.
The nature of data set [4]: Clinical study: effect of ketoconazole or ibuprofen on the pharmacokinetics of Formula Ia. Format: in vivo, human. The conditions noted are these: for AUC / half-life: human, plasma, po, 400 mg. The protocol:
The study was conducted in an open-label, randomized, 3-period, 2-sequence crossover manner (FIG. 2). During Period 1, all 12 human subjects were administered a single 400 mg dose of Formula Ia. During Periods 2 and 3, human subjects received multiple doses of interacting drug, either ketoconazole (400 mg BID) or ibuprofen (600 mg TID) in a randomized sequence. The interacting drug was administered beginning on Day 1 (3 days prior to Formula Ia administration) and continued through Day 6. A single dose of Formula Ia was administered on Day 4 (2 hours after administration of the AM dose of interacting drug). Plasma samples for pharmacokinetic and metabolite analyses of Formula Ia was collected at predose (0 hour), 0.5, 1, 1.5, 2, 2.5, 3, 4, 5, 6, 7, 8, 9, 10, 12, 24, 36, 48, and 72 hour postdose for each period. (The 48 and 72 hour postdose samples for Period 1 was collected in an outpatient setting). In Periods 2 and 3, additional blood samples were collected immediately prior to dosing of the Formula Ia on Day 4 and two hours post ketoconazole/ibuprofen administration on Day 5 for determination of ketoconazole or ibuprofen concentration. • Treatment A: Formula Ia (4×100 mg capsules); single dose, P.O following an overnight fast, administered on Day 1 or Period 1. • Treatment B: Ketoconazole 400 mg; PO, administered BID from Day 1 to Day 6, Formula Ia (4×100 mg capsules); single dose, PO following an overnight fast, administered on Day 4 (2 hours after the AM ketoconazole dose). • Treatment C: Ibuprofen 600 mg; PO, TID from Day 1 to Day 6 Formula Ia (4×100 mg capsules); single dose, PO following an overnight fast, administered on Day 4 (2 hours after the AM ibuprofen dose).
Human subjects received a single dose of Formula Ia on Day 1 of Period 1. In Period 2 and Period 3, human subjects were treated for 6 days with either ketoconazole or ibuprofen and received a single dose of Formula Ia on Day 4 of each period. There were at least 7 days between administration of Formula Ia in Period 1 and Period 2 and at least 14 days between administration of Formula Ia in Period 2 and 3.
The proportion of human subjects with plasma concentrations above the in vitro IC50 and IC90 for the HCV replicon at each time point was determined. This plasma concentration data was used to estimate the following primary pharmacokinetic variables for the determination of bioavailability comparisons: • AUC(tf)—Area under the plasma concentration-time curve from Time 0 […]. • Cmax—Maximum observed plasma concentration. • Tmax—Time to maximum observed plasma concentration. • t½—Terminal phase half-life.

For data set [5], the system named is HCV. Description: EC90 of Formula XIVa used as plasma concentration threshold. The conditions noted are these: Hepatitis C virus.
The conditions of data set [6]: in vivo; cited from earlier work.
In data set [7] the test system is HCV. The conditions noted are these: HCV positive patients, Nelson et al. 2003; cited from earlier work.
[8] abbreviates: Mean (% CV), plasma Formula Ia, single 400 mg dose PO, human subjects.
The mark [9] stands for this setting: co-administering ketoconazole with Formula Ia.

On to `CC(C)(C)NC(=O)N[C@H](C(=O)N1CC2C([C@H]1C(=O)NC(CC1CCC1)C(=O)C(N)=O)C2(C)C)C(C)(C)C` (some centres unmarked) [Formula Ia], for which the C8 in data set [1] (Mean PK (% CV), Formula Ia TID (400 mg) alone, Day 5) is listed as 104 (31); in data set [4] (setting [8]), 48.0 (38). In addition, in data set [1] (coadministration with 100 mg ritonavir QD or BID compared to monotherapy of Formula Ia alone), the “effect on the PK parameters examined” value is listed as “no effect”. The Tmax in data set [1] (human, plasma, oral, Mean PK (% CV), Formula Ia TID (400 mg) alone, Day 5) came out at 2.13 h; in data set [4] (median, plasma Formula Ia, single 400 mg dose PO, human subjects) it was 1.75 h. For the same molecule, the AUC in data set [1] (human, plasma, oral, Mean PK (% CV), Formula Ia TID (400 mg) alone, Day 5, read-out: AUC8) is 4120 ng·h/mL; in data set [4] (Mean (% CV), plasma Formula Ia, single 400 mg dose PO, human subjects, read-out: AUC(l)) it was 2070 ng·h/mL; in data set [4] (Mean (% CV), plasma Formula Ia, single 400 mg dose PO, human subjects, read-out: AUCall), 2040 ng·h/mL. Moreover, the Cmax in data set [1] (plasma, oral, Mean PK (% CV), Formula Ia TID (400 mg) alone, Day 5, with food, healthy human subjects) amounted to 1360 ng/mL; in data set [4] (Mean (% CV), plasma Formula Ia, single 400 mg dose PO, fasted human subjects, alone or with ketoconazole 400 mg BID or ibuprofen 600 mg TID) it was 571 ng/mL. The exposure result in data set [2] is “increases”. Moreover, the “1ST PARENT PEAK AREA” value in the data set with human liver cytosol (HL Cytosol w/ NADPH + 2 uM Ritonavir) was 3.81E+07; with human liver cytosol (HL Cytosol w/ NADPH + 50 uM Mefenamic acid), 6.19E+07; in the data set on human liver cytosol (HL Cytosol w/ NADPH + 100 uM Flufenamic acid), 6.33E+07; in the data set with human liver cytosol (HL Cytosol w/ NADPH + 100 uM Phenolphthalein), 6.23E+07; in the data set on human liver cytosol (HL Cytosol w/ NADPH + 200 uM Diflunisal) it was 6.10E+07; in the data set on human liver cytosol (HL Cytosol w/ NADPH Vehicle Control), 3.95E+07. The “1ST PARENT PEAK AREA” value in the data set with human liver cytosol (HL Cytosol w/o NADPH, 20 μM substrate, 60 min, 37° C.) was 7.41E+07. Also, the exposure multiple in data set [3] was at least 4 fold. Moreover, in data set [4] (setting [8]), the AUC(0-t) came to 2000 ng·h/mL. Further, in data set [4] (setting [8]), the MRT is 6.57 h. Further, in data set [4] (setting [9]), the “increase in Cmax (average)” value amounted to 40%. The “increase of overall exposure (AUC)” value in data set [4] (setting [9]) is “more than 2 fold”. Further, the “increase of trough concentration (C8)” value in data set [4] (setting [9]) was “approximately 3 fold”. Moreover, the “increase in the bioavailability of Formula Ia” value in data set [4] (coadministration of ketoconazole compared to monotherapy of Formula Ia alone) stood at 2 fold. Further, the “mean residence time (MRT) and effective half-life” value in data set [4] (effect of ketoconazole) is recorded as “increased”. For the same molecule, the half-life in data set [4] (Mean (% CV), plasma Formula Ia, single 400 mg dose PO, human subjects, read-out: t½ (converted)) is 9.11 h; in data set [4] (Mean (% CV), plasma Formula Ia, single 400 mg dose PO, human subjects, read-out: t½ eff (converted)), 3.3 h.

Consider `CCCCC(NC(=O)[C@@H]1[C@@H]2[C@H](CN1C(=O)[C@@H](NC(=O)NC1(CS(=O)(=O)C(C)(C)C)CCCCC1)C(C)(C)C)C2(C)C)C(=O)C(=O)NC1CC1` (some centres unmarked) [Formula XIVa], for which, in the data set with HCV [5], the 90% effect level (EC90) was put at 0.03 µg/mL.

As to `CC(C)c1nc(CN(C)C(=O)N[C@H](C(=O)N[C@@H](Cc2ccccc2)C[C@H](O)[C@H](Cc2ccccc2)NC(=O)OCc2cncs2)C(C)C)cs1` [ritonavir], the half life in data set [6] was 3 to 5 h.

B1: recombinant human IL-10: recombinant human IL-10 given to HCV positive patients in a Phase II clinical study (protein)
chain: SPGQGTQSENSCTHFPGNLPNMLRDLRDAFSRVKTFFQMKDQLDNLLLKESLLEDFKGYLGCQALSEMIQFYLEEVMPQAENQDPDIKAHVNSLGENLKTLRLRLRRCHRFLPCENKSKAVEQVKNAFNKLQEKGIYKAMSEFDIFINYIEAYMTMKIRN
With B1, in the data set on HCV [7], the hepatic fibrosis entry is recorded as “decrease” and the viral load entry is “increase”.

As usually defined, the EC90 is the concentration needed for an effect of 90%. A low value points to greater potency.
